Test results published in PMC8063026 (Frontiers in Pharmacology, 2021).
Read-outs that look alike come from different tables or passages of the source.

Experiments:
DAT [1] = biological target: T1, DAT (Homo sapiens, UniProt Q01959); assay: cell-based
T1 construct: expressed in transfected cells

human NET [2] = biological target: T2, human NET (Homo sapiens, UniProt P23975); assay: cell-based; details: for pIC50 NET: QSAR data matrix, from IC50 NET
T2 construct: expressed in transfected cells

SERT [3] = biological target: T3, SERT (Homo sapiens, UniProt P31645); assay: Uptake-inhibition of [3H]5-HT in HEK293 cells stably expressing human SERT; format: cell-based
T3 construct: expressed in transfected cells
T3 sequence (P31645 whole entry): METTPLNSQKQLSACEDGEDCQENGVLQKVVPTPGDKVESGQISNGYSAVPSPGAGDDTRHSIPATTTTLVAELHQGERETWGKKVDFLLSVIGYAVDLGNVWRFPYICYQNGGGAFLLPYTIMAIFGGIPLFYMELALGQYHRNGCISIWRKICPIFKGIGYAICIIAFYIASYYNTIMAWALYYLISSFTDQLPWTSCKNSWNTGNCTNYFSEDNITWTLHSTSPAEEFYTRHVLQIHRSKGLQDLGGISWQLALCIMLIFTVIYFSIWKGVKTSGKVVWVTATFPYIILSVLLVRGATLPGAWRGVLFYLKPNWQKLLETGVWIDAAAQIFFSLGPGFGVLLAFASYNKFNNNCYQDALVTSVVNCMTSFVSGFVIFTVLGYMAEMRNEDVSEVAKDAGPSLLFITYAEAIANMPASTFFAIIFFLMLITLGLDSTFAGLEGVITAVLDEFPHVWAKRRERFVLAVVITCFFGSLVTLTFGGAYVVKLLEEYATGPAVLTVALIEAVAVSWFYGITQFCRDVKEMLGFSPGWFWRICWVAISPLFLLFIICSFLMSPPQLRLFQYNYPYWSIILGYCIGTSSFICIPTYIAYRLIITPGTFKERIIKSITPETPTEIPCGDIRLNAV

DAT [4] = biological target: T1, DAT; details: cited from earlier work
human NET [5] = biological target: T2, human NET; details: QSAR data matrix; unit inferred; compounds not tested in this paper, source not given, presumably ref Mayer et al., 2019; cited from earlier work
SERT [6] = biological target: T3, SERT; details: cited from earlier work
SERT [7] = tested on: SERT; set-up: method as in Gregg et al., 2015; Mayer et al., 2016b; Mayer et al., 2019; details: ref Gregg et al., 2015, Mayer et al., 2016b, 2019; cited from earlier work
DAT [8] = biological target: T1, DAT; assay: Transporter electrophysiology (whole cell patch clamp), HEK293 cells stably expressing DAT; format: cell-based; details: compound applied at 30 µM, -60 mV
Experimental: (§1) Human embryonic kidney 293 cells (HEK293 cells) were cultivated in Dulbecco’s Modified Eagle Medium (DMEM), containing 10% heat-in- activated fetal calf serum (FCS), streptomycin (100 μg x 100 ml−1) and penicillin (100 U × 100 ml−1). Geneticin (50 μg x mL−1) was added to select HEK293 cells stably expressing the human isoforms of DAT, NET and SERT as described earlier ([Mayer et al., 2016a]). Cell lines were maintained in a sub-confluent state in humidified atmosphere (37°C, 5% CO2). For uptake inhibition experiments cells expressing the desired transporter were seeded the days before the experiment (40,000 cells per well) or two days before the experiments (20,000 cells per well) onto poly-D-lysine (PDL) coated 96-well plates 24 h prior to the experiment. In the case of transporter-electrophysiology cells were cultivated in 10 cm dishes and 24 h before the experiments they were detached, and seeded at low density onto PDL-coated 3 cm dishes.
(§2) Transporter electrophysiology was conducted by the means of whole cell patch clamp in HEK293 cells stably expressing DAT or SERT. Substrate-induced currents were recorded under voltage clamp (−60 mV). Cells were continuously superfused with a physiological external solution that contains 140 mM NaCl, 2.5 mM CaCl2, 2 mM MgCl2, 20 mM glucose and 10 mM HEPES, pH = 7.4. The pipette solution contained 133 mM potassium gluconate, 6 mM NaCl, 1 mM CaCl2, 0.7 mM MgCl2, 10 mM HEPES, 10 mM EGTA, pH = 7.2. Currents elicited by mephedrone 30 μM, were measured at room temperature (20–24°C) using an […] amplifier and pClamp 11.2 software (MDS Analytical Technologies). All the solutions perfused onto the cell were applied using a DAD-12 superfusion system and a 8-tube perfusion manifold (ALA Scientific Instruments), which allowed for rapid solution exchange. Current traces were filtered at 1 kHz and digitized at 10 kHz using a Digidata 1,550 (MDS Analytical Technologies). […] For the analysis, passive holding currents were subtracted, and the traces were filtered using a 100-Hz digital Gaussian low-pass filter.

SERT [9] = biological target: T3, SERT; assay: Transporter electrophysiology (whole cell patch clamp), HEK293 cells stably expressing SERT; format: cell-based; details: compound applied at 30 µM, -60 mV
Experimental: as §1, §2

[10] = LC-MS/MS detection of mephedrone metabolites in a human urine sample; format: in vivo; set-up: key to Detected in urine samples: detected (+); not detected (−); details: for Detected in urine samples: human urine, mephedrone user, only syn- and anti-configurations could be separated; for detection in human urine sample: achiral LC-MS/MS, after enzymatic workup
Source text: The biological specimen, human urine, was provided by the Department of Chemical Analytics, Seibersdorf Laboratories GmbH. The sample was taken from a subject postmortem in a fatal case of drug overdose. […] Given this fact, we assumed that also the metabolites would be detectable in sufficient quantity. To evaluate the presence of any metabolites whatsoever in the urine sample we designed an achiral separation protocol for liquid chromatography and we coupled it with triple quadrupole mass spectrometer. The advantage of LC-MS/MS system is that even if two substances have the same retention time, they can still be differentiated by their fragmentation pattern. More in details, the samples for urine analysis were analyzed using a CTC HTS PAL autosampler (CTC Analytics) and a Thermo Surveyor LC system (Thermo) interfaced to a TSQ Quantum Discovery Max triple quadrupole mass spectrometer (Thermo). A C18 security guard cartridge (4 × 2 mm) (Phenomenex) was used for sample clean-up and the analytical HPLC column was a Kinetex 1.7 μm C18 100Å 150 × 2.1 mm (Phenomenex) and Cortecs T3, 2.7 μm C18 120Å 100 × 2.1 mm (Waters). Column selection was performed by a Maylab Mistraswitch column selector (Maylab Analytical Instruments). The solvents were 0.2% formic acid in water (A) and acetonitrile (B). The temperature of the analytical column was maintained at 40°C. The mass spectrometer was equipped with heated electrospray ionization (ESI) source and was operated in positive ionization mode with a spray voltage set at 4500V. The capillary temperature was adjusted to 320°C. The sheath and auxiliary gas (nitrogen) flow rate was 25 and 10 arbitrary units, respectively. The system was operated in selected […] (srm) mode with argon as the collision gas at a pressure of 1.5 mTorr. For the achiral separation, stem solutions were prepared by weighing the reference substances in volumetric flasks and filling them up with MeOH (99.9%; HPLC grade), creating average concentration of 1 mg/ml. Then dilution solutions were prepared as follows: 10 μL of stem solution was filled up to 5 ml MeOH, creating dilution […]. Samples were prepared from dilution solutions by taking out 25 μL and mixing it together with 25 μL of ISP, 50 μL ISS and filled up to 1 ml with Milli-Q water. The final sample solvent was water/MeOH 9/1. For the enzymatic workup, phosphate buffer (1 ml, 0.8M, pH = 7), β-glucuronidase/arylsulfatase (25 μL) and β-glucuronidase (25 μL) were added to the solutions. The solutions were heated at 50°C during 1 h upon which EtOAc (7 ml) was added. The solution was put into shaker for 10min, following centrifugation for 5 min. The organic phase was separated and evaporated into dryness in stream of pressurized nitrogen. The residue was taken up in 150 μL MQ-water/MeOH 9/1 + 0.4% formic acid, heated at 50°C for 5 min and subjected to LC-MS analysis.
If on one hand the synthesis of putative metabolites allows the establishment of structure activity relationships, on the other hand, it provides pure material to evaluate their presence in human urine samples and determine their pharmacological relevance. To determine the presence of any metabolites in the urine sample, we have designed an achiral separation protocol and coupled the liquid chromatography with triple quadrupole mass spectrometer (LCMS/MS). With the LCMS/MS system two substances with the same retention time, can still be differentiated by their fragmentation pattern. Since metabolites carrying a primary alcohol functionality can form glucuronide and sulfate conjugates, we performed an enzymatic workup of the urine sample in order to cleave them. Apart from the parental drug, we detected 4-OH-MMC and 4-MC (nor-meph) which we have both already identified in our previous publication ([Mayer et al., 2019]), and the two previously uncharacterized metabolites 4-COOH-MC and dihydro-4-MC (Figure 6). […]

[11] = ref Olesti et al., 2019, cited from earlier work
[12] = cited from earlier work; for relative abundance: minor metabolites in rats, ref Linhart et al., 2016
[13] = ref Meyer et al., 2010; cited from earlier work
[14] = QSAR data matrix, from IC50 DAT
[15] = QSAR data matrix, from IC50 SERT
[16] = QSAR data matrix, unit inferred, compounds not tested in this paper, source not given, presumably ref Mayer et al., 2019, read-out: IC50 DAT
[17] = QSAR data matrix, unit inferred, compounds not tested in this paper, source not given, presumably ref Mayer et al., 2019, read-out: IC50 SERT
[18] = QSAR data matrix, from IC50 DAT, read-out: pIC50 DAT (converted)

T2 sequence (P23975 whole entry): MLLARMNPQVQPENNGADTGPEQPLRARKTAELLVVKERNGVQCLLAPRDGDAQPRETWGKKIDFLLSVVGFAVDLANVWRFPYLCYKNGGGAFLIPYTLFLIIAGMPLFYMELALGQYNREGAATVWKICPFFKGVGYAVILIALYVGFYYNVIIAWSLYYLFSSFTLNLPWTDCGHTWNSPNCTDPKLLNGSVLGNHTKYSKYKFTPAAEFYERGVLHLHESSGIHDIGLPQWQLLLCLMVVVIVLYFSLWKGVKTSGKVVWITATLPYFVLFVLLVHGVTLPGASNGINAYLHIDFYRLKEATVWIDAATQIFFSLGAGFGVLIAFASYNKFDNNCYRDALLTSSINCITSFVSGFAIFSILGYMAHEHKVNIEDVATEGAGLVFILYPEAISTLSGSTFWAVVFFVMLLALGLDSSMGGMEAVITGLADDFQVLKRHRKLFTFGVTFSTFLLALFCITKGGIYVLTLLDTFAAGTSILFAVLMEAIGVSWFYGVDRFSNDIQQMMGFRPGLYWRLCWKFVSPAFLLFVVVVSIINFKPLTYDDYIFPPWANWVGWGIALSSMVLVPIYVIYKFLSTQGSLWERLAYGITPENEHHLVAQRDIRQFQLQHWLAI
T1 sequence (Q01959 whole entry): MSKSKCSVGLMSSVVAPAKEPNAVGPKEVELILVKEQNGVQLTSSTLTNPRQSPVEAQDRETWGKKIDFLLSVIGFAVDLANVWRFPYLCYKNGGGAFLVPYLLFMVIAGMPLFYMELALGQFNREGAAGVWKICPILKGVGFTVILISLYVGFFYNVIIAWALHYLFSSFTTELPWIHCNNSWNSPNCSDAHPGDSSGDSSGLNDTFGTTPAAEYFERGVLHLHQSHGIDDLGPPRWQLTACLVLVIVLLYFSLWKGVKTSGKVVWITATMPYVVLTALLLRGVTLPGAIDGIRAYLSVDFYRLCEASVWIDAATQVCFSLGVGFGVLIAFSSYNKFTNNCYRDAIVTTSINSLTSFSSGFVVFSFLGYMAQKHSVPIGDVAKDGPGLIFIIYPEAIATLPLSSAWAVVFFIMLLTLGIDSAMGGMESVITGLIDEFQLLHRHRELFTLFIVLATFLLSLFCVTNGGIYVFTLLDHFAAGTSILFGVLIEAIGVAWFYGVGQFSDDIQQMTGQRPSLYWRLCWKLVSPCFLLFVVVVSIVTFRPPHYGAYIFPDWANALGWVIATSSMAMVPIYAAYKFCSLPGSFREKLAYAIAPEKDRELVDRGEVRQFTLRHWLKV

SMILES | pIC50 DAT (DAT [1]; [14]) | pIC50 NET (human NET [2]) | pIC50 SERT (SERT [3]; [15]) | IC50 (DAT [4]; [16]) [µM] | IC50 (human NET [5]) [µM] | IC50 (SERT [6]; [17]) [µM] | detection in human urine sample [10] | other results
CN[C@@H](C)[C@@H](O)c1ccc(C)cc1 [1S2S-MMC, reference compound] | 4.89 | 4.33 | 3.61 | 12.9 | 47.1 | 248 |  | 
CN[C@@H](C)C(=O)c1ccc(C)cc1 [S-mephedrone, reference compound] |  |  |  |  |  |  |  | IC50 (DAT [1]; [18]): 0.776 µM; IC50 (human NET [2]): 2.75 µM; IC50 (SERT [3]; pIC50 SERT, QSAR data matrix, from IC50 SERT): 10.7 µM; IC50 (SERT [6]; read-out: IC50 SERT, QSAR data matrix, unit inferred, compounds not tested in this paper, source not given, presumably ref Mayer et al., 2019): 10.7 µM; potency as releaser of SERT, times higher than R-mephedrone (SERT [7]): 40 times
Cc1ccc(C(=O)[C@@H](C)N)cc1 [2R-MC, reference compound] | 5.03 | 5.34 | 3.70 | 9.44 | 4.54 | 200 |  | 
CNC(C)C(=O)c1ccc(C)cc1 (stereo not drawn) [Mephedrone, reference compound] |  |  |  |  |  |  |  | Selectivity ratio DAT/SERT (DAT [1]): 2.90; Selectivity ratio NET/DAT (human NET [2]): 1.09; DAT-mediated current (DAT [8]): elicited both DAT- and SERT mediated currents; SERT-mediated current (SERT [9]): elicited both DAT- and SERT mediated currents; Detected in urine samples [10]: +; IC50 (DAT [4]; read-out: IC50 (µM) DAT, mean (95% confidence interval), ref Niello et al. (2019)): 3.01 µM; IC50 (SERT [6]; read-out: IC50 (µM) SERT, mean (95% confidence interval), ref Niello et al. (2019)): 8.74 µM; plasma concentrations ([11]; conversion of ng h/ml range): 90 to 1250 nM·h
CC(N)C(=O)c1ccc(CO)cc1 (stereo not drawn) [4-OH-MC] |  |  |  |  |  |  | not found | relative abundance [12]: 0.1–0.2%; detection in rat urine ([12]; ref Meyer et al., 2010): could be detected in rat urine; detection in human urine [13]: not in human urine
CN[C@@H](C)[C@H](O)c1ccc(C)cc1 [1R2S-MMC, reference compound] | 4.68 | 4.41 | 4.49 | 21.1 | 39 | 32.2 |  | 
CN[C@H](C)[C@@H](O)c1ccc(C)cc1 [1S2R-MMC, reference compound] | 4.90 | 4.64 | 4.18 | 12.7 | 22.7 | 65.6 |  | 
CC(N)C(O)c1ccc(CO)cc1 (stereo not drawn) [dihydro-4-OH-MC] |  |  |  |  |  |  | not found | relative abundance [12]: 0.1–0.2%
Cc1ccc(C(=O)[C@H](C)N)cc1 [2S-MC, reference compound] | 5.06 | 5.42 | 4.96 | 8.72 | 3.84 | 10.9 |  | 
CNC(C)C(O)c1ccc(C)cc1 (stereo not drawn) [dihydro-4-MMC, dihydro-mephedrone, reference compound] |  |  |  |  |  |  | did not find | plasma level as % of the plasma mephedrone [11]: 10%
CN[C@H](C)[C@H](O)c1ccc(C)cc1 [1R2R-MMC, reference compound] | 4.85 | 4.41 | 3.52 | 14.1 | 39.1 | 302 |  | 
CN[C@H](C)[C@H](O)c1ccc(CO)cc1 [Dihydro-(R,R)-4-OH-MMC] |  |  |  |  |  |  |  | Selectivity ratio DAT/SERT (DAT [1]): 67.72; IC50 (DAT [1]; [18]): 25.7 µM; IC50 (DAT [1]; mean (95% confidence interval), non-linear regression, read-out: IC50 (µM) DAT): 25.6 µM; Selectivity ratio NET/DAT (human NET [2]): 0.69; IC50 (human NET [2]; mean (95% confidence interval), non-linear regression, read-out: IC50 (µM) NET): 37 µM; IC50 (SERT [3]; in Figure 3, read-out: IC50(SERT)): 1700 µM; IC50 (SERT [3]; mean (95% confidence interval), non-linear regression, read-out: IC50 (µM) SERT): 1740 µM; DAT-mediated current (DAT [8]): did not elicit any DAT or SERT-mediated current; SERT-mediated current (SERT [9]): did not elicit any DAT or SERT-mediated current; Detected in urine samples [10]: −
Cc1ccc(C(=O)C(C)N)cc1 (stereo not drawn) [4-MC, nor-mephedrone, reference compound] |  |  |  |  |  |  | detected | plasma level as % of the plasma mephedrone [11]: 25%
